Results published in patent US5846720A, “Methods of determining chemicals that modulate expression of genes associated with cardiovascular disease” (Oncogene Science, Inc., priority 1996, dated 1998).
Read-outs that look alike come from different tables or passages of the source.

Experiments:
hGH promoter = assay: hGH promoter/luciferase reporter assay (high-throughput screen I), 532 cells; type: cell-based, rat; conditions: Table 2, 6 h incubation; for hGH fold induction relative to solvent control: transcriptional activators; for hGH fold inhibition relative to solvent control: transcriptional inhibitors
From the text: 6. a GC rat pituitary cell line, transfected with the growth hormone reporter plasmid, designated 532, deposited under ATCC Accession No. CRL 10663.

MMTV promoter = assay: MMTV promoter/luciferase reporter assay (high-throughput screen I, control for specificity), M10 cells; type: cell-based, mouse; conditions: Table 2, 6 h incubation; for MMTV fold induction relative to solvent control: transcriptional activators, original high-throughput assay; for MMTV fold inhibition relative to solvent control: transcriptional inhibitors
Description: pMluci and pSV2Neo, an antibiotic resistance plasmid (84), were co-transfected into NIH/3T3 mouse fibroblast cells using the calcium phosphate precipitation method (85) with a commercially available kit (Pharmacia, Piscataway N.J.). Two days later, cells were transferred to media containing 0.4 mg/ml G418 and were grown for an additional 10-14 days. G418-resistant clones were isolated by standard methods. Once sufficient cell numbers were obtained, clones were analyzed based on several criteria: constitutive luciferase production, induction of luciferase expression by dexamethasone ([…], Sigma, St. Louis, Mo.), satisfactory attachment to microtiter plates used in the high-throughput screen (see section G) and acceptable standard deviation in multiple luciferase expression assays (see below for assay protocol). This analysis was carried out using the luciferase assay conditions described above. Of the clones which satisfied the above criteria for the high throughput screen, one clone, M10, was selected for use.

G-CSF promoter = assay: G-CSF promoter/luciferase reporter assay (high-throughput screen I), G21 cells; conditions: for GCSF fold induction relative to solvent control: transcriptional activators
[1] = transcriptional inhibitors, Table 2, 6 h incubation

Row | SMILES | hGH fold induction relative to solvent control (hGH promoter) [fold] | MMTV fold induction relative to solvent control (MMTV promoter) [fold] | GCSF fold induction relative to solvent control (G-CSF promoter; Table 2, 6 h incubation) [fold] | hGH fold inhibition relative to solvent control (hGH promoter) [fold] | MMTV fold inhibition relative to solvent control (MMTV promoter) [fold] | GCSF fold inhibition relative to solvent control (G-CSF promoter; [1]) [fold] | GCSF fold inhibition relative to solvent control (G-CSF promoter)
1 | O=C(O)c1[nH]c(=O)[nH]c(=O)c1I [Chemical 633] | 0.86 | 2.46 | 1.02 | – | – | – | –
2 | Nc1c(O)c(S(=O)(=O)O)c(O)c2c1C(=O)c1ccccc1C2=O [Chemical 640] | – | – | – | 5.00 | 0.59 | 0.64 | –
3 | O=C(c1ccc(O)c(O)c1)c1c(O)cc(O)cc1O [Chemical 660] | – | – | – | 0.34 | 1.04 | 10.0 | –
4 | CN(C)c1ccc(C(=C2C=CC(=[N+](C)C)C=C2)c2ccc([N+](C)(C)C)cc2)cc1 [Chemical 670] | 0.52 | 0.79 | > 3 | – | – | – | –
5 | C1CCNCC1 [Chemical 759] | – | – | – | 5.88 | 0.95 | – | 0.64
6 | CC(=O)OCC(=O)[C@@]1(O)CC[C@H]2[C@@H]3CCC4=CC(=O)C=C[C@]4(C)[C@H]3[C@@H](O)C[C@@]21C [Chemical 765] | 1.30 | 2.66 | 0.96 | – | – | – | –
7 | CCOc1ccc2nc3cc(N)ccc3c(N)c2c1 [Chemical 790] | 5.94 | 0.58 | 0.01 | – | – | – | –
8 | O=C1OC2(c3cc(I)c(O)c(I)c3Oc3c2cc(I)c(O)c3I)c2c(Cl)c(Cl)c(Cl)c(Cl)c21 [Chemical 792] | 5.31 | 1.21 | 0.94 | – | – | – | –
9 | NC(=O)c1ccccc1O [Chemical 798] | – | – | – | 0.90 | 0.68 | 4.76 | –
10 | Clc1ccc(Sc2cc(Cl)c(Cl)cc2Cl)cc1 [Chemical 828] | 1.34 | 2.20 | 1.47 | – | – | – | –
11 | N=c1ccc2nc3ccc(N)cc3sc-2c1 [Chemical 836] | 0.23 | 0.58 | 3.20 | – | – | – | –
12 | CC1(C)O[C@@H]2C[C@H]3[C@@H]4CCC5=CC(=O)C=C[C@]5(C)[C@@]4(F)[C@@H](O)C[C@]3(C)[C@]2(C(=O)CO)O1 [Chemical 848] | 1.28 | 2.43 | 0.75 | – | – | – | –
13 | CCCCCCCCCCCCCCCC(=O)OCC(COC(=O)CCCCCCCCCCCCCCC)OC(=O)CCCCCCCCCCCCCCC [Chemical 856] | 6.49 | 0.42 | 0.28 | – | – | – | –
14 | Nc1ccc(C=CC(=O)O)cc1 [Chemical 1234] | 0.51 | 1.03 | 4.97 | – | – | – | –
15 | Cc1c(C2(c3cc(Br)c(O)c(Br)c3C)OS(=O)(=O)c3ccccc32)cc(Br)c(O)c1Br [Chemical 1251] | 15.19 | 0.33 | 0.14 | – | – | – | –
16 | Clc1cc(Cl)cc(Br)c1 [Chemical 1255] | 0.43 | 1.09 | 6.74 | – | – | – | –
17 | Nc1c(Cl)ncnc1Cl [Chemical 1269] | 0.91 | 2.18 | 0.72 | – | – | – | –
18 | Nc1ccc2c(c1)Cc1ccccc1-2 [Chemical 1316] | 1.39 | 2.33 | 0.74 | – | – | – | –
19 | Nc1ccc2c(c1)C(=O)c1ccccc1-2 [Chemical 1318] | 0.85 | 2.41 | 1.13 | – | – | – | –
20 | Nc1ccc(S(=O)(=O)O)c2cccc(O)c12 [Chemical 1337] | 15.87 | 0.23 | 0.07 | – | – | – | –
